From patent US20140137294A1, “GLUCOSINOLATE TRANSPORTER PROTEIN AND USES THEREOF” (UNIVERSITY OF COPENHAGEN, priority 2010, published 2014) come the findings set out here.

Each structure is given as a SMILES string.

This assay concerns the target T1, AtGTR1 (Arabidopsis thaliana, UniProt Q944G5).
T1 construct: A library of Arabidopsis transporters available as full length cDNAs from the RIKEN bioresource center; expressed in transfected cells; host or cells: Xenopus oocytes injected with in vitro transcribed cRNA
T1 sequence (Q944G5 31-636 limits assumed): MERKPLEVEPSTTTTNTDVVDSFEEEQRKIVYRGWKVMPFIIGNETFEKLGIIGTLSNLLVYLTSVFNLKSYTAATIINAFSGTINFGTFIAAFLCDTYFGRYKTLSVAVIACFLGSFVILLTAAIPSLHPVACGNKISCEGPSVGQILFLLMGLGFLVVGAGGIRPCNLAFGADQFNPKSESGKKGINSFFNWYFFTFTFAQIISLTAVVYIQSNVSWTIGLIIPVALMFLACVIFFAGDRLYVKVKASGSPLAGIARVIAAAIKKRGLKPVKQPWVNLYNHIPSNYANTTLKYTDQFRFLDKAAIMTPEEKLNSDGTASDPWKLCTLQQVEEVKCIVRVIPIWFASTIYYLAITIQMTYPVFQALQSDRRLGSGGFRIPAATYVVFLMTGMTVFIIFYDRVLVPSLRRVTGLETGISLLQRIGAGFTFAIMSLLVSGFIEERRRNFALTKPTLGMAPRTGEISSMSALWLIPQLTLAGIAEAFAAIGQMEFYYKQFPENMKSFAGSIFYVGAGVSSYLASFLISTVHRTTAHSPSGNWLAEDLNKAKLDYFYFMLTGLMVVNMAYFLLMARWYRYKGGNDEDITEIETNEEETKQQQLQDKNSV
The experiment in a line: Uptake of C14-labeled pOHBG in AtGTR1 expressing oocytes in presence of excess competitor. The assay is classed as cell-based. Particulars: 50× excess unlabeled competitor, AtGTR1, pH 5. How it is done:
FIG. 3: Biochemical analysis of AtGTR1 and 2 mediated GSL transport in Xenopus oocytes. A and B, pH dependence of AtGTR-mediated GSL transport. A, AtGTR2 mediated 4-MTB uptake measured by LC-MS analysis of oocyte extracts, n=3 oocytes. B, AtGTR1 currents induced by 1 mM 4-MTB were measured at different membrane potentials at pH 5 ([…]), pH 6 (♦), and pH 7 (▴). Currents were normalized to the current induced at pH 5 at −60 mV, error bars are SD, n=4 oocytes. C and D, kinetic analysis of AtGTR-mediated glucosinolate transport. […]
The substrate specificity investigations were extended to include substrates previously identified for the NRT/PTR transporter family namely di- and tripeptides and nitrate. […] However, perfusing with 1 mM NO3^− did result in currents but these amounted only to 1/10th of currents measured when perfusing with 100 μM 4-MTB (FIG. 3F). […]
For assays with radiolabeled substrates, single oocytes were ruptured in 100 μl 10% SDS in 4 ml scintillation vials by shaking for 20-30 minutes. 2.5 ml EcoScint™ scintillation fluid (National Diagnostics) was added, and imported compounds quantified by scintillation counting. For assays with unlabeled substrates, oocyte extracts were analysed by LC-MS. Oocytes were analyzed in batches of 5 oocytes per repetition. […]

For `CSCCCC/C(=N/OS(=O)(=O)O)S[C@@H]1O[C@H](CO)[C@@H](O)[C@H](O)[C@H]1O` [4-MTB, 4-methylthiobutyl glucosinolate], the “effect on uptake of 40 μM C14-labeled pOHBG” value was “reduced the uptake of pOHBG to background levels”.
